# Experimental data published in US20160213007A1, “Methods and Compositions to Elicit Resistance to Fungal Disease in Plants and Plant Parts” (ECOFLORA AGRO S.A.S., priority 2013, published 2016).
# Test system: Botrytis cinerea
# Assay: Growth inhibition of Botrytis cinerea by acetophenones
compound,measurement,value
O=C(CO)c1ccccc1 [2-hydroxy acetophenone],inhibition of the growth of the fungus Botrytis cinerea,can inhibit the growth
